Results as given in patent publication US4016159A, “Acylamino-cephem-carboxylic acids containing an amidino or guanidino group in the molecule” (Hoechst Aktiengesellschaft, priority 1973, dated 1977).
In brackets after ≈: the same amount, converted by molar mass.

Experiments:
Assay type in all cases: cell-based
[1] = test system: Streptococcus D; assay: Minimum inhibition concentration (MIC), Table 4; conditions: Germ: Streptococcus D; for MIC: Streptococcus, read-out: Minimum inhibition concentration (MIC)
From the text: (§1) Minimum inhibition concentration (MIC) in γ/ml

[2] = test system: Staphylococcus aureus SG 511; assay: Minimum inhibition concentration (MIC), Table 5; conditions: for MIC: Staphylococcus aureus, SG511, Germ: Staphylococcus aureus SG 511, read-out: Minimum inhibition concentration (MIC)
From the text: as §1
Germ: Staphylococcus aureus SG 511

[3] = test system: Staphylococcus aureus 285; assay: Minimum inhibition concentration (MIC), Table 1; conditions: for MIC: Staphylococcus aureus, 285, Germ: Staphylococcus aureus 285, read-out: Minimum inhibition concentration (MIC)
From the text: as §1
Germ: Staphylococcus aureus 285

[4] = test system: Streptococcus pyogenes A; assay: Minimum inhibition concentration (MIC), Table 3; conditions: Germ: Streptococcus pyogenes A; for MIC: read-out: Minimum inhibition concentration MIC
From the text: Minimum inhibition concentration MIC in γ/ml
Germ: Streptococcus pyogenes A

[5] = test system: Proteus mirabilis; assay: Minimum inhibition concentration (MIC), Table 2; conditions: Germ: Proteus mirabilis; read-out: Minimum inhibition concentration (MIC)
From the text: Minimum inhibition concentration (MIC) in /ml

| Compound | MIC [1] [µg/mL] | MIC [2] [µg/mL] | MIC [3] [µg/mL] | MIC [4] [µg/mL] | Minimum inhibition concentration (MIC) [1] [µg/mL] | Minimum inhibition concentration (MIC) ([2]; Germ: Staphylococcus aureus SG 511) [µg/mL] | Minimum inhibition concentration (MIC) ([3]; Germ: Staphylococcus aureus 285) [µg/mL] | Minimum inhibition concentration (MIC) [4] [µg/mL] | MIC [5] [µg/mL] |
| --- | --- | --- | --- | --- | --- | --- | --- | --- | --- |
| CCCCCCNC(=N)c1ccc(OCC(=O)NC2C(=O)N3C(C(=O)O)=C(CSc4nnc(C)o4)CSC23)cc1 (stereo not shown) [Example 32, 3-[(5-methyl-1,3,4-oxadiazole-2-yl)-thiomethyl]-7-[4-(N-n-hexylamidino)-phenoxyacetamido]-Δ 3-cephem-4-carboxylic acid] | 10 to 50 (≈ 17 to 84.9 µM) | 0.0625 to 0.078 (≈ 0.106 to 0.132 µM) | 0.156 to 0.391 (≈ 0.265 to 0.664 µM) | 0.000391 to 0.0078 (≈ 0.000664 to 0.0132 µM) |  |  |  |  |  |
| Cc1csc(SCC2=C(C(=O)O)N3C(=O)C(NC(=O)COc4ccc(C(=N)N)cc4)C3SC2)n1 (stereo not shown) [Example 64, 3-[(4-methyl-1,3-thiazole-2-yl)-thiomethyl]-7-(4-amidinophenoxyacetamido)-Δ 3-cephem-4-carboxylic acid] |  |  |  |  | 10 to 50 | 0.0625 to 0.078 | 0.5 to 1.25 | 0.000391 to 0.0078 |  |
| Cc1nnc(SCC2=C(C(=O)O)N3C(=O)C(NC(=O)Cc4ccc(C5=NCCCN5)cc4)C3SC2)n1N (stereo not shown) [Example 101, 3-[(4-amino-5-methyl-1,2,4-triazole-3-yl)-thiomethyl]-7-[4-(1,4,5,6-tetrahydropyrimide-2-yl)-phenylacetamido]-Δ3-cephem-4-carboxylic acid] |  |  | 0.5 to 1.25 (≈ 0.921 to 2.3 µM) |  |  |  |  |  | 25 (≈ 46.1 µM) |
| CC(C)(C)c1csc(SCC2=C(C(=O)O)N3C(=O)C(NC(=O)Cc4ccc(C5=NCCN5)cc4)C3SC2)n1 (stereo not shown) [Example 111, 3-[(4-tert.butyl-thiazole-2-yl)-thiomethyl]-7-[-4-(imidazoline-2-yl)-phenylacetamido]-Δ3-cephem-4-carboxylic acid] | 0.196 to 6.25 (≈ 0.343 to 10.9 µM) | 0.0625 to 0.078 (≈ 0.109 to 0.136 µM) | 0.156 to 0.391 (≈ 0.273 to 0.684 µM) | 0.000391 to 0.0078 (≈ 0.000684 to 0.0136 µM) |  |  |  |  |  |
| Cc1n[nH]c(SCC2=C(C(=O)O)N3C(=O)C(NC(=O)Cc4ccc(C(=N)N)cc4)C3SC2)n1 (stereo not shown) [Example 23, 3-[(5-methyl-1,2,4-triazole-3-yl)-thiomethyl]-7-(4-amidino-phenylacetamido)-Δ 3-cephem-4-carboxylic acid] |  |  | 1.6 to 2.5 (≈ 3.28 to 5.13 µM) |  |  |  |  |  | 25 (≈ 51.3 µM) |
| O=C(Cc1ccc(C2=NCCN2)cc1)NC1C(=O)N2C(C(=O)O)=C(CSc3nnc(-c4ccccc4)s3)CSC12 (stereo not shown) [Example 52, 3-[(5-phenyl-1,3,4-thiadiazole-2-yl)-thiomethyl]-7-[4-(imidazoline-2-yl)-phenylacetamido] -Δ 3-cephem-4-carboxylic acid] | 0.196 to 6.25 (≈ 0.331 to 10.5 µM) | 0.0196 to 0.0391 (≈ 0.0331 to 0.066 µM) | 0.156 to 0.391 (≈ 0.263 to 0.66 µM) | 0.000391 to 0.0078 (≈ 0.00066 to 0.0132 µM) |  |  |  |  |  |
| CCCCCCNC(=N)c1ccc(OCC(=O)NC2C(=O)N3C(C(=O)O)=C(CSc4nnc(C)s4)CSC23)cc1 (stereo not shown) [Example 33, 3-[(5-methyl-1,3,4-thiadiazole-2-yl)-thiomethyl]-7-[4-(N-n-hexylamidion)-phenoxyacetamido]-Δ 3-cephem-4-carboxylic acid] | 0.196 to 6.25 (≈ 0.324 to 10.3 µM) | 0.0625 to 0.078 (≈ 0.103 to 0.129 µM) | 0.156 to 0.391 (≈ 0.258 to 0.647 µM) | 0.000391 to 0.0078 (≈ 0.000647 to 0.0129 µM) |  |  |  |  |  |
| O=C(Cc1ccc(C2=NCCCN2)cc1)NC1C(=O)N2C(C(=O)O)=C(CSc3nnc(-c4ccccc4)s3)CSC12 (stereo not shown) [Example 80, 3-[(5-phenyl-1,3,4,-thiadiazole-2-yl)-thiomethyl]-7-[4-(1,4,5,6-tetrahydropyrimide-2-yl)-phenylacetamido]-Δ 3-cephem-4-carboxylic acid] | 10 to 50 (≈ 16.5 to 82.4 µM) | 0.0625 to 0.078 (≈ 0.103 to 0.129 µM) | 0.156 to 0.391 (≈ 0.257 to 0.644 µM) | 0.000391 to 0.0078 (≈ 0.000644 to 0.0129 µM) |  |  |  |  |  |
| CSc1nc(SCC2=C(C(=O)O)N3C(=O)C(NC(=O)Cc4ccc(C5=NCCCN5)cc4)C3SC2)nc(-c2ccccc2)n1 (stereo not shown) [Example 69, 3-[(4-methylmercapto-6-phenyl-1,3,5-triazine-2-yl)-thiomethyl]-7-[4-(1,4,5,6-tetrahydropyrimide-2-yl)-phenyl-acetamido]-Δ 3-cephem-4-carboxylicacid] | 10 to 50 (≈ 15.4 to 77.2 µM) | 0.0196 to 0.0391 (≈ 0.0303 to 0.0604 µM) | 0.156 to 0.391 (≈ 0.241 to 0.604 µM) | 0.000391 to 0.0078 (≈ 0.000604 to 0.012 µM) |  |  |  |  |  |
| CCCc1csc(SCC2=C(C(=O)O)N3C(=O)C(NC(=O)Cc4ccc(C5=NCCN5)cc4)C3SC2)n1 (stereo not shown) [Example 114, 3-[(4-n-propyl-thiazole-2-yl)-thiomethyl]-7-[4-(imidazoline-2-yl)-phenylacetamido]-Δ3-cephem-4-carboxylic acid] | 0.196 to 6.25 (≈ 0.351 to 11.2 µM) | 0.0625 to 0.078 (≈ 0.112 to 0.14 µM) | 0.156 to 0.391 (≈ 0.28 to 0.701 µM) | 0.000391 to 0.0078 (≈ 0.000701 to 0.014 µM) |  |  |  |  |  |
| O=C(Cc1ccc(C2=NCCCN2)cc1)NC1C(=O)N2C(C(=O)O)=C(CSc3cccc[n+]3[O-])CSC12 (stereo not shown) [Example 107, 3-[(1-oxido-2-pyridyl)-thiomethyl]-7-[4-(1,4,5,6-tetrahydropyrimide-2-yl)-phenylacetamido]-Δ3-cephem-4-carboxylic acid] | 10 to 50 (≈ 18.5 to 92.7 µM) |  | 1.6 to 2.5 (≈ 2.96 to 4.63 µM) |  |  |  |  |  | 25 (≈ 46.3 µM) |
| CCCc1nnc(SCC2=C(C(=O)O)N3C(=O)C(NC(=O)COc4ccc(C(=N)N)cc4)C3SC2)s1 (stereo not shown) [Example 68, 3-[(5-n-propyl-1,3,4-thiadiazole-2-yl)-thiomethyl]-7-(4-amidinophenoxyacetamido)-Δ 3-cephem-4-carboxylic acid] | 10 to 50 (≈ 18.2 to 91.1 µM) | 0.0625 to 0.078 (≈ 0.114 to 0.142 µM) | 0.5 to 1.25 (≈ 0.911 to 2.28 µM) | 0.008 to 0.0156 (≈ 0.0146 to 0.0284 µM) |  |  |  |  |  |
